Measurements reported in article PMC6154319, “Intestinal Transport Characteristics and Metabolism of C-Glucosyl Dihydrochalcone, Aspalathin” (Molecules : A Journal of Synthetic Chemistry and Natural …, 2017).
Marks after values point to notes of the source that are not given here.

Columns and labels:
SGLT1 = molecular target: T1, SGLT1 (Homo sapiens, UniProt P13866); conditions: aspalathin 100 µM; 100 µM phloridzin (SGLT1)
T1 sequence (P13866 1-664): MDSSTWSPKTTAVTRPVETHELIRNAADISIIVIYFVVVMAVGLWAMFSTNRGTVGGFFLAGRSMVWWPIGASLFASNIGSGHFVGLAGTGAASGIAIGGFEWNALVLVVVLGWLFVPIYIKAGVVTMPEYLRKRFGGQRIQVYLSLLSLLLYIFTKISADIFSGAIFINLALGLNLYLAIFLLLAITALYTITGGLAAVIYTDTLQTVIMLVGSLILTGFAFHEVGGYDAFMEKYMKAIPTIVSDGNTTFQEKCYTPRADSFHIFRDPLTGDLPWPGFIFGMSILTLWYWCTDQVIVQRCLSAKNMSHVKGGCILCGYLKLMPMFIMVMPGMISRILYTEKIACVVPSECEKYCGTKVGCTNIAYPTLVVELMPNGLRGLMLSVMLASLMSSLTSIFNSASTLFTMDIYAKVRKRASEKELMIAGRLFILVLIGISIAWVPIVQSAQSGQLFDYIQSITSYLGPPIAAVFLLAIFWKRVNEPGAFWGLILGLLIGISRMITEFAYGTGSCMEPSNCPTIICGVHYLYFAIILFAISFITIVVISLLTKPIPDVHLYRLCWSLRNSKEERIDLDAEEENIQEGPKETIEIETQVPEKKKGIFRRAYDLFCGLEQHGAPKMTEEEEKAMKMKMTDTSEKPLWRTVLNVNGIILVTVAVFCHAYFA
Description: The cell monolayers were equilibrated briefly with transport buffer, pH 6.0 (HBSS with 2-(N-morpholino) ethanesulphonic acid (MES)) on the apical side and pH 7.4 (HBSS with HEPES) on the basolateral side, to remove traces of the culture media. Following this, transport buffers were added for 30 min prior to the addition of treatment (inhibitors were added during this step when required, as well as during the subsequent treatment incubation step). After equilibration, the plates containing transport medium were incubated for 30 min at 37 °C at 5% CO2 in 95% humidified air and the TEER value of the monolayer determined. […] For basolateral-to-apical compartment studies, 2.4 mL of treatment at the same concentrations in HBSS (pH 7.4), was added to the basolateral compartment.
To assess whether aspalathin was co-transported with glucose, its transport (100 µM) at both high (20.5 mM) and low (5.5 mM) glucose concentrations, mimicking the intestinal lumen glucose concentrations pre- and post-meals, was monitored. This was followed by experiments performed in the presence and absence of SGLT1 (100 µM phloridzin), GLUT2 (100 µM phloretin) and efflux, PgP (100 µM verapamil) inhibitors.
Samples (1.2 mL) were withdrawn from the basolateral or the apical compartment to measure the concentration of aspalathin uptake and efflux, respectively at 0, 0.5, 1, 1.5, and 2 h under sink conditions (the sample aliquot replaced with equal volume of relevant transport buffer). Sample aliquots (350 µL) were frozen in liquid nitrogen after the addition of ascorbic acid (35 µL of 10% solution) and stored at −65 °C until HPLC analysis. Results were corrected for dilution and expressed as cumulative transport (% of initial dose) as a function of time. Papp (cm/s) for bi-directional transport studies was calculated as previously described. Transport of other major flavonoids in the matrices, i.e., nothofagin, the 3-deoxy analogue of aspalathin and its flavone derivatives, orientin and isoorientin, were also determined.

[1] = Kinetic solubility assay (miniaturised shake flask); type: physicochemical; conditions: 2 h, 25 °C, 2% DMSO
Description: The kinetic solubility assay was performed using a miniaturised shake flask method. A 10 mM stock solution of aspalathin was used to prepare calibration standards (10–220 µM) in dimethyl sulphoxide (DMSO), and to spike (1:50) duplicate aqueous samples of phosphate buffered saline (pH 6.5), 0.01 M HCl (pH 2), and FaSSIF (pH 6.5), with a final DMSO concentration of 2%. After shaking for 2 h at 25 °C, the solutions were filtered (multiscreen filter plates, 0.45 µm low-binding, hydrophilic polytetrafluoroethylene (PTFE), Merck) and analysed by means of HPLC-DAD (Agilent 1200 Rapid Resolution HPLC; Agilent Technologies, Inc., Santa Clara, CA, USA). Best fit calibration curves were constructed using the calibration standards, which were used to determine the solubility of the aqueous samples [43].

## O=C(CCc1ccc(O)c(O)c1)c1c(O)cc(O)c([C@@H]2O[C@H](CO)[C@@H](O)[C@H](O)[C@H]2O)c1O [Aspalathin]
SGLT1
  Efflux Ratio + Inhibitor (phloridzin): 0.99 ^c
  Papp a-b + Inhibitor (phloridzin): 1.47 ± 1.10 ^c ×10^−6 cm/s
  Papp b-a + Inhibitor (phloridzin): 1.47 ± 0.9 ^c ×10^−6 cm/s
[1]; 0.01 M HCl (pH 2)
  Kinetic solubility at pH 2: 153 µM
[1]; FaSSIF (pH 6.5)
  Kinetic solubility in FaSSIF at pH 6.5: 119 µM
[1]; phosphate buffered saline (pH 6.5)
  Kinetic solubility at pH 6.5: 123 µM
